Data taken from patent US4629736A, “Fatty acid derivatives and process of producing them” (Yamanouchi Pharmaceutical Co., Ltd., priority 1983, dated 1986).

How the values were obtained:
[1] = tested on: Fibrin-clot (lysis by Urokinase); assay: Fibrinolytic action (fibrin-clot lysis assay), clot lysis time relative to Urokinase alone; type: biochemical
Description: FIBRINOLYTIC ACTION (Fibrin-clot lysis assay)
Fibrinogen (1 mg/50 μl, made by Green Cross Corporation) and various amounts of the test compounds, were added to test tubes, followed to make a total volume of 850 μl with cold Tris-buffered saline (20 mM Tris-buffer, pH 7.4, containing 140 mM NaCl). To the solutions were added 100 μl of Urokinase solution (30 CTA unit/0.1 ml) and 50 μl of thrombin solution (2 NIH units/50 μl) to make final clot volume of 1 ml each in test tubes in an ice bath. The tubes were quickly shaken to mix the reagents well and immediately placed in a 37° C. water bath, and the clot lysis time was recorded. Test compounds were dissolved in physiological saline, except contrast one dissolved in physiological saline containing 10% cremophore and 0.15% ethanol. Thus, by measuring the time of clot lysis, the relative activity of the fibrinolytic action of the test compound to that of Urokinase using the system of Urokinase alone as the control was determined. The results of the pharmacological effect of the compounds of this invention are shown in Table 1 below together with that of 3-hexadecanoyloctadecanoyl-β-alanyl-L-phenylalanine having the formula [drawing 15] which is one of the compounds having the most excellent fibrinolytic action in known compounds.

Solubility in saline = type: physicochemical
From the text: In particular, the compounds of this invention have been discovered after investigating the point of water solubility, which has never been attained in known acylpeptides. That is, the compounds of this invention have very improved water solubility, whereby sufficient pharmacological effect of the compounds can be expected and also the preparations of the compounds, such as the application to injections, and the like, can be easily performed. For example, the solubility of compound of Example 21 is more than 5 mg/ml saline.

mice = assay: Acute toxicity, intravenous injection to mice; type: in vivo; conditions: mouse
Description: In addition, the acute toxicity of the compound in Example 21 was measured as follows.

[2] = at 1 × 10^-5 M, solvent physiological saline solution

CCCCCCCCCCCCCCCC(=O)C(CCCCCCCCCCCCCCC)CC(=O)NCCC(=O)N[C@@H](Cc1ccccc1)C(=O)O (stereo partly drawn) [Known compound, 3-hexadecanoyloctadecanoyl-β-alanyl-L-phenylalanine, reference compound]
Fibrinolytic Action, maximum relative activity (%) with the activity of Urokinase alone being defined to 100% ([1]; at 1 × 10^-4 M, solvent Cremophore solution): 140-150%

CCCCCCCCCCCCCC(CC(=O)N[C@@H](Cc1ccccc1)C(=O)O)OC(=O)COCCOCCCCCCCCCC (stereo partly drawn) [Example 21, N-[3-(3,6-dioxahexadecanoyloxy)hexadecanoyl]-L-phenylalanine]
solubility (Solubility in saline): more than 5 mg/ml saline
Fibrinolytic Action, maximum relative activity (%) with the activity of Urokinase alone being defined to 100% ([1]; at 3 × 10^-6 M, solvent physiological saline solution): 150-160%
acute toxicity (dose without death) (mice): higher than 200 mg/40 ml saline/kg

CCCCCCCCCCCCCCCC(CC(=O)N[C@@H](CO)C(=O)O)OC(=O)COCCOCCCCCCCCCC (stereo partly drawn) [Example 22, N-[3-(3,6-dioxahexadecanoyloxy)octadecanoyl]-L-serine]
Fibrinolytic Action, maximum relative activity (%) with the activity of Urokinase alone being defined to 100% ([1]; at 3 × 10^-5 M, solvent physiological saline solution): 160%

CCCCCCCCCCOCCNC(=O)[C@H](CC(=O)O)NC(=O)COCCOCCCCCCCCCC [Example 14, (S)-3-(3,6-dioxahexadecanamido)-3-(3-oxatridecylcarbamoyl)propionic acid]
Fibrinolytic Action, maximum relative activity (%) with the activity of Urokinase alone being defined to 100% [1, 2]: 150%

CCCCCCCCCCCCCCCC(CC(=O)N[C@@H](Cc1ccccc1)C(=O)O)OC(=O)COCCOCCOCCCCCC (stereo partly drawn) [Example 20, N-[3-(3,6,9-trioxapentadecanoyloxy)octadecanoyl]-L-phenylalanine]
Fibrinolytic Action, maximum relative activity (%) with the activity of Urokinase alone being defined to 100% [1, 2]: 130-150%

CCCCCCCCCCCCCCCC(CC(=O)N[C@@H](Cc1ccccc1)C(=O)O)OC(=O)COCCOCCOCCOCCCC (stereo partly drawn) [Example 19, N-[3-(3,6,9,12-tetraoxahexadecanoyloxy)octadecanoyl]-L-phenylalnine]
Fibrinolytic Action, maximum relative activity (%) with the activity of Urokinase alone being defined to 100% [1, 2]: 130-140%
